# Columns and labels:
# Format in all cases: binding
# panel of 442 kinases [1] = target: T1, panel of 442 kinases (Homo sapiens, UniProt P00533, DEL752-759); settings: Compound Concentration 10 µM
# T1 construct: purchased KINOMEscan
# From the text: (§1) We assessed the selectivity of members of this scaffold using the KINOMEscan methodology across a near comprehensive panel of 442 kinases [[18,27]].
# panel of 442 kinases [2] = target: T2, panel of 442 kinases (Homo sapiens, UniProt P12931); settings: kinase SRC; compound concentration 10 µM
# T2 construct: purchased KINOMEscan
# From the text: as §1
# panel of 442 kinases [3] = target: T3, panel of 442 kinases (Homo sapiens, UniProt Q14004); settings: Compound Concentration 10 µM
# T3 construct: purchased KINOMEscan
# From the text: as §1
# panel of 442 kinases [4] = target: T4, panel of 442 kinases (Homo sapiens, UniProt Q9Y4K4); settings: Compound Concentration 10 µM
# T4 construct: purchased KINOMEscan
# From the text: as §1
# T2 sequence (P12931 whole entry): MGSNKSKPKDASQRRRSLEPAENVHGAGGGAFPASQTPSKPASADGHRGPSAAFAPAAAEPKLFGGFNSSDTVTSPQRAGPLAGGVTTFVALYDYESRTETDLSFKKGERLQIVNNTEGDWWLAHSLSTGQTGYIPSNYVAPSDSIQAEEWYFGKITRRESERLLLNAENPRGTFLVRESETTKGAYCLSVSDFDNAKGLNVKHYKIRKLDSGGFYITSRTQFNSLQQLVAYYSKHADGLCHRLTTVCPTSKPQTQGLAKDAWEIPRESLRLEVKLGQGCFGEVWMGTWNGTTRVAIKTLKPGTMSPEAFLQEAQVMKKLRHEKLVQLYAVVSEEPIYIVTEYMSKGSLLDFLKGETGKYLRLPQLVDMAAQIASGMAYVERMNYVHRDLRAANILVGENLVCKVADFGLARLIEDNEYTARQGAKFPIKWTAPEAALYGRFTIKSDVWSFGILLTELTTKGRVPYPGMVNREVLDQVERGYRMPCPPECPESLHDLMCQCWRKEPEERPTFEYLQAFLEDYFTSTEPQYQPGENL
# T4 sequence (Q9Y4K4 whole entry): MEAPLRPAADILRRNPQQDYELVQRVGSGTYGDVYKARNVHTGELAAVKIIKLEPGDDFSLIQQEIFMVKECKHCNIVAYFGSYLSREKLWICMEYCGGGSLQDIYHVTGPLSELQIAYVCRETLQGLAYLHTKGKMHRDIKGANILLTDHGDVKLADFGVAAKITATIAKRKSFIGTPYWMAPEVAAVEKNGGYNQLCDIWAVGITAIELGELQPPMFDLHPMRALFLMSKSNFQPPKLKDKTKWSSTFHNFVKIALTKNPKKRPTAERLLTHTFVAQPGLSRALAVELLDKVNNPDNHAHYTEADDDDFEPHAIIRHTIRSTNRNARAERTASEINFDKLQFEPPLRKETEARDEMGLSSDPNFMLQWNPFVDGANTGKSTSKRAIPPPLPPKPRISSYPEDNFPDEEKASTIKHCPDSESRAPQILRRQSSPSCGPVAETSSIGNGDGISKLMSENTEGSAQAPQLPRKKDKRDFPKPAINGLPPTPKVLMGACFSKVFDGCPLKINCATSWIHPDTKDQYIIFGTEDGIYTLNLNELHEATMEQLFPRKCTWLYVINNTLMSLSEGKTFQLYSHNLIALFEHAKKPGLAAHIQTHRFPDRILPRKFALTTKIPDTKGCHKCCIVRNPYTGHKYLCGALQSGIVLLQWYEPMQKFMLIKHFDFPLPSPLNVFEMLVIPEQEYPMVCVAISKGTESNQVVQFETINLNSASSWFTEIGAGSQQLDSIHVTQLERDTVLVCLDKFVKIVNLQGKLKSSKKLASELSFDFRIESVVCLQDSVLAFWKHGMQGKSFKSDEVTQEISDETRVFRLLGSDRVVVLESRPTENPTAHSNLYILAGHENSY
# T3 sequence (Q14004 whole entry): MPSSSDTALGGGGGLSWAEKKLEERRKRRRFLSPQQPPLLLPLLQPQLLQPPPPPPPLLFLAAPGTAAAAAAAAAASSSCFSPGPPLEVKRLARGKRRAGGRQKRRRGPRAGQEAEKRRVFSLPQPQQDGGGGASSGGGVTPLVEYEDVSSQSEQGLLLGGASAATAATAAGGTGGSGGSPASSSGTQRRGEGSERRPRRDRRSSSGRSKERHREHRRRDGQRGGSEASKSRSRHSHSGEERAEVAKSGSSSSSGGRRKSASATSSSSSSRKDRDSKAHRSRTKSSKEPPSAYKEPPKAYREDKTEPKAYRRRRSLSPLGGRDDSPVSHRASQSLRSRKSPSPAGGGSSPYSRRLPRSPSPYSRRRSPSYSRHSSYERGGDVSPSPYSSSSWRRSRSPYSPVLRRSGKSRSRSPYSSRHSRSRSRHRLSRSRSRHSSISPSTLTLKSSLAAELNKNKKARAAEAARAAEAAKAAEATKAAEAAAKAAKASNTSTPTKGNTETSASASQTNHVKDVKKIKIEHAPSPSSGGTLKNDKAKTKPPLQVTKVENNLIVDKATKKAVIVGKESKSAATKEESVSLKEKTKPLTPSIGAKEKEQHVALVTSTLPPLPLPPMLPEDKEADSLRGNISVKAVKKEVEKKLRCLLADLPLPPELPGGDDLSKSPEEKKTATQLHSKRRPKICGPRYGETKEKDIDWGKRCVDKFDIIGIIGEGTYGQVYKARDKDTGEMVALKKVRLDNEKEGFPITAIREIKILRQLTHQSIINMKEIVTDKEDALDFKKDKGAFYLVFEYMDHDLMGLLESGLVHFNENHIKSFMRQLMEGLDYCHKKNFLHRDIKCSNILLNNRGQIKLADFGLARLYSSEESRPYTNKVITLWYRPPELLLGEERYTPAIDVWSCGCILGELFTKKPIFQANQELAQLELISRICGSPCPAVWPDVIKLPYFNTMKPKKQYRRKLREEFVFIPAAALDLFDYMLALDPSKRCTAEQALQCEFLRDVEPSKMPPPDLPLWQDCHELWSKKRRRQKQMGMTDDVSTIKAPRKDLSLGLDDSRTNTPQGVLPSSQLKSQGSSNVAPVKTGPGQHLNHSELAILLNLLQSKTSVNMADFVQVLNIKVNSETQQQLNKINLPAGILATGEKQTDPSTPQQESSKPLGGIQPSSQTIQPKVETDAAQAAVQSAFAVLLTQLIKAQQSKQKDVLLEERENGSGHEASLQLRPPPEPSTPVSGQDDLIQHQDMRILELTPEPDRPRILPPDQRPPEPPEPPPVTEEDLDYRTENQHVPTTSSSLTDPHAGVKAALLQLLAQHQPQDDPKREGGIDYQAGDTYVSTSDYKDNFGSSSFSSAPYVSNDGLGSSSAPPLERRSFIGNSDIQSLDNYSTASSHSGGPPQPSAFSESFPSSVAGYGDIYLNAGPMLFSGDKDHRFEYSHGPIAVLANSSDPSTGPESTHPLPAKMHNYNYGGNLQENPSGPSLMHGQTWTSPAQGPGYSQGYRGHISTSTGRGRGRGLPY
# T1 sequence (P00533 with tags, fused parts or gaps DEL752-759): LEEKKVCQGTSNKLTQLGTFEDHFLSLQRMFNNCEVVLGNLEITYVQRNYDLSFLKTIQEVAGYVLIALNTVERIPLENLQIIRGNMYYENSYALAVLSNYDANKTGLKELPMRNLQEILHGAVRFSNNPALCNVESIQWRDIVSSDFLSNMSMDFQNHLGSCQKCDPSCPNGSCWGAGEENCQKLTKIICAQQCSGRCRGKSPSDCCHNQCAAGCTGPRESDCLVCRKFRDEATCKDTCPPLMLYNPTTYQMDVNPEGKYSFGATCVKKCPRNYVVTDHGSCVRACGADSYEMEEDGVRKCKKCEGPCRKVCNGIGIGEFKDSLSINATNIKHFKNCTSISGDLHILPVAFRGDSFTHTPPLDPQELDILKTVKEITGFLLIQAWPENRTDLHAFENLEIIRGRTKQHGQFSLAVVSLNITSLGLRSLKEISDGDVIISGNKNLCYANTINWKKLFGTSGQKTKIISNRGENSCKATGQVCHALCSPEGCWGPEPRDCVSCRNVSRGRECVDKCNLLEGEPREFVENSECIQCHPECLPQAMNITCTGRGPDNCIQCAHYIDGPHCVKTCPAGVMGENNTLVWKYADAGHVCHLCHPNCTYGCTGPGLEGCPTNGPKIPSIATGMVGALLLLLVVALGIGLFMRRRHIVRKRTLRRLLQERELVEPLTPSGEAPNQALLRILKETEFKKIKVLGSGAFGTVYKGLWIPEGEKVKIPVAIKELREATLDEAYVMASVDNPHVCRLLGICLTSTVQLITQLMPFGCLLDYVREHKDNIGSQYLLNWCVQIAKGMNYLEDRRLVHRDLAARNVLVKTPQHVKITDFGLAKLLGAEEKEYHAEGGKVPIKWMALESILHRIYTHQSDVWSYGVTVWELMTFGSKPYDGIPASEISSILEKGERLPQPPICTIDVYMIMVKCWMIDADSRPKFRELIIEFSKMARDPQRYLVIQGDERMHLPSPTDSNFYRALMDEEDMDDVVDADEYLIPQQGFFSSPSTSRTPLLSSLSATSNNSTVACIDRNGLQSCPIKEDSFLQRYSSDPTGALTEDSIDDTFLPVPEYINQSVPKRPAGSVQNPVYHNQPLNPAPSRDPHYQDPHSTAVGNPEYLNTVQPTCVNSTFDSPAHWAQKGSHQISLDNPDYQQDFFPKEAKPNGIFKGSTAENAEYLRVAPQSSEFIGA
SMILES,KINOMEscan: EGFR(S752-I759del) (panel of 442 kinases [1]),"% Ctrl, SRC (panel of 442 kinases [2]) [% Ctrl]",KINOMEscan: CDC2L5 (panel of 442 kinases [3]),KINOMEscan: MAP4K5 (panel of 442 kinases [4])
CCOc1cc(C(=O)N2CCC(N3CCN(C)CC3)CC2)ccc1Nc1ncc2c(n1)N(C1CCCC1)c1ccccc1C(=O)N2C [Compound 26],86,100,100,95
"COc1cc(C(=O)N2CCC(N3CCN(C)CC3)CC2)ccc1Nc1ncc2c(n1)N(C1CCCC1)c1ccccc1C(=O)N2C [Compound 25, 11-cyclopentyl-2-((2-methoxy-4-(4-(4-methylpiperazin-1-yl)piperidine-1-carbonyl)phenyl)amino)-5-methyl-5H-benzo[e]pyrimido[5,4-b][1,4]diazepin-6(11H)-one]",80,90,100,96
COc1cc(C(=O)N2CCC(N3CCN(C)CC3)CC2)ccc1Nc1ncc2c(n1)N1CCc3cccc(c31)C(=O)N2C [Compound 24],80,95,,72
COc1cc(C(=O)N2CCC(N3CCN(C)CC3)CC2)ccc1Nc1ncc2c(n1)N(C)c1ccccc1C(=O)N2C [15 (LRRK2-IN-1)],99,100,100,100
